Measured values as given in US9983195B2, “Engineered three-dimensional breast tissue, adipose tissue, and tumor disease model” (ORGANOVO, INC., priority 2014, dated 2018).

What was measured:
Format in all cases: cell-based, human
[1] = test system: bioprinted breast cancer constructs (MCF7/HUVEC cancer node surrounded by NHMF, HUVEC, SPA stroma); test: Construct viability after drug treatment by alamarBlue assay; conditions: 10 μM compound for 3 days, followed by 100 μM compound for 24 hours; FIG. 14
Text: Bioprinted breast cancer constructs were generated in which a cancer cell node, composed of MCF7 breast cancer cells and human umbilical vein endothelial (HUVEC) cells, is surrounded on all sides by a stromal compartment composed of normal human mammary fibroblasts (NHMF), HUVEC cells, and subcutaneous preadipocytes (SPA). Bio-inks were produced by combining cells with a reversibly cross-linkable, alginate-containing hydrogel (Novogel® 3.0 System; Organovo, Calif.). The stromal compartment of the constructs was comprised of 65% NHMF, 25% HUVEC, and 10% SPA (partially pre-differentiated). The cancer compartment of the constructs was comprised of 75% MCF7, 25% HUVEC. For each compartment, cells were mixed together at the indicated ratio and resuspended in Novogel® 3.0 at a concentration of 150 million cells/ml. Constructs were printed as 3 layered structures with a dimension of 3 mm×3 mm×0.75 mm. Immediately following bioprinting, constructs were stabilized via crosslinking. After 2 minutes, the calcium crosslinking solution was aspirated and replaced with culture media. After 2 days in culture, constructs were treated overnight with enzyme dissolved in culture media to remove the Novogel® 3.0. […] Constructs were assessed for metabolic activity by alamarBlue assay (Life Technologies, Carlsbad, Calif.) or CellTiter Glo assay (Promega, Madison, Wis.). […]

[2] = test system: bioprinted breast cancer tumor models (stromal and cancer compartments); test: Apoptosis by TUNEL staining with CK8 and TE7 markers in bioprinted breast cancer tumor models; conditions: 100 μM cisplatin for 4 days; FIG. 22
Text: (§1) The breast cancer tumor models included a nodule of human breast cancer cells surrounded by a physiologically-relevant stromal layer, which included human adipocytes differentiated from human mesenchymal stem cells, human mammary fibroblasts, and human endothelial cells. The adipocytes were derived from mesenchymal stem cells which were isolated an exposed to an adipocyte differentiation signal prior to preparation of the bio-ink and bioprinting.
Referring to FIG. 22, bioprinted tissues were treated with vehicle (A-C) or 100 μM cisplatin (D-F) for 4 days. The first (A and D) and second (B and E) columns depict tissues assessed for apoptosis by TUNEL staining (green) and markers for cancer cells (CK8, red). The last (C and F) column depicts tissues assessed for apoptosis by TUNEL staining (green) and markers for fibroblasts (TE7, red).

[3] = test system: breast cancer cells in two-dimensional culture and bioprinted breast cancer tumor models; test: Viability by ATP luciferase assay, two-dimensional breast cancer cell culture versus bioprinted breast cancer tumor models; conditions: 10 μM tamoxifen for 48 hours, FIG. 20
Text: as §1
The breast cancer tumor models were exposed to chemotherapy compounds in order to access drug response. Referring to FIG. 20, breast cancer cells grown in two-dimensional cell culture (A) and the bioprinted breast cancer tumor models (B) were treated with media alone, DMSO, or 10 μM tamoxifen for 48 hours and assessed for viability by ATP luciferase assay. For each graph, * indicates p<0.05 for treatment compared to control.

SMILES: N.N.[Cl][Pt][Cl] [Cisplatin, cisplatin]
- construct viability (alamarBlue) relative to media or vehicle controls [1]: decreased construct viability
- apoptosis (TUNEL) in stromal versus cancer compartment [2]: induces greater apoptosis in the stromal compartment of bioprinted tissues than in the cancer compartment

SMILES: CC(=O)O[C@H]1C(=O)[C@@]2(C)[C@H]([C@H](OC(=O)c3ccccc3)[C@]3(O)C[C@H](OC(=O)[C@H](O)[C@@H](NC(=O)c4ccccc4)c4ccccc4)C(C)=C1C3(C)C)[C@]1(OC(C)=O)CO[C@@H]1C[C@@H]2O [paclitaxel]
- construct viability (alamarBlue) relative to media or vehicle controls [1]: decreased construct viability

SMILES: CC/C(=C(\c1ccccc1)c1ccc(OCCN(C)C)cc1)c1ccccc1 [tamoxifen]
- susceptibility to tamoxifen-induced toxicity, two-dimensional cells versus three-dimensional bioprinted constructs [3]: Isolated two-dimensional cancer cells were more susceptible to tamoxifen-induced toxicity than cells incorporated into three-dimensional bioprinted constructs
